From patent US20060177385A1, “Compositions for treating dental caries caused by streptococcus mutans infection” (priority 2002, published 2006)

Tests used:
[1] = single rinse, mouthrinse, 10 subjects; cited from earlier work
[2] = target: T1, Rhodobacter sphaeroides (Rb.s.) ADPG Ppase (Cereibacter sphaeroides, UniProt Q9RNH7); assay: ADPG Ppase enzyme assay (14C Glc-1-P to ADPGlucose) with ADPG borano analogs; format: biochemical; design: *2.2: unit not given here; conditions: for inhibition of Rb.s. ADPG Ppase: 500 μM
T1 construct: made in house
T1 sequence (Q9RNH7 whole entry): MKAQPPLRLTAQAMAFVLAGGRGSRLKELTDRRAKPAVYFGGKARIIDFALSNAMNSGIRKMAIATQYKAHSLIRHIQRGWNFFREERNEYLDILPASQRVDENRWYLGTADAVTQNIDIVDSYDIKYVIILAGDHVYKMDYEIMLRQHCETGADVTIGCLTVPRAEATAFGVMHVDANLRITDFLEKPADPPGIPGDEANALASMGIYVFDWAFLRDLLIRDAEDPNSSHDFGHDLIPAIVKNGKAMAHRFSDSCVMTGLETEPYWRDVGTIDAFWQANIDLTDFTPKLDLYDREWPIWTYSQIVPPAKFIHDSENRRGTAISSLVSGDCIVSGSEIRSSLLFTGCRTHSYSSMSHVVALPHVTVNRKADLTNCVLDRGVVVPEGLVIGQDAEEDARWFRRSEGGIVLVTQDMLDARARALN
Description: Assaying for ADPGlc synthesis activity involves measuring the amount of 14-C labeled Glc-1-P converted to ADPGlucose (Preiss, J., Shen, L., Greenberg, E., and Gentner, N. (1966) Biochemistry 5, 1833-1845). Briefly, unreacted Glc-1-P is separated from product by the following steps: 1) digestion with alkaline phosphatase (thus removing the negatively charged phosphate); 2) spotting an aliquot of the reaction mixture on to positively charged DE-81 filters (Whatman); and 3) washing the filters with water (thus removing the now neutral C-14 glucose).
To assess the effect of a putative inhibitor, enzyme assays are performed at a subsaturating concentration of substrate (depending on the enzyme, ATP=0.2-1 mM, Glc-1-P=0.5 mM) under standard conditions in the absence and presence of the major activator for each enzyme (1-5 mM depending on enzyme). In this way, the effect of the inhibitors can be evaluated under the range of the expected in vivo conditions. Initial screening of a putative inhibitor typically includes testing at two concentrations (˜25 μM and 1 mM)±major activator with appropriate controls and blanks for a total of 9 assays/inhibitor/enzyme (2 control assays—appropriate enzyme concentrations in the absence of inhibitor, 4 experimental assays; 1 blank in the absence of inhibitors; 2 blanks in the presence of inhibitor (no activator required).
The APDGlc Ppase from Rhodobacter sphaeroides has been used as a model enzyme for initial testing of inhibitors as it has been cloned, sequenced, and expressed in the inventor's laboratory (Meyer et al (1999) Arch. Biochem. Biophys. 372, 179-188; Igarashi, R. Y. and Meyer, C. R. (2000) Arch. Biochem Biophys. 376, 47-58) and the purified recombinant enzyme is readily available. Further, this particular enzyme has the most complex regulation (having partial overlap with nearly every type of ADPG Ppase) and has sufficient homology (ranging from ˜40-70% similarity) to the enzyme primary sequence from the mentioned pathogenic bacteria.
1. OVERVIEW: 2 analogs (ANALOG; stereoisomers I, II) of adenosine-α-P-boranodiphosphoglucose were tested for inhibiting activity against the ADPG Ppase enzyme from Rhodobacter sphaeroides (Rb.s.) ADPG Ppase.
PREMIX: A: 100 mM HEPES (pH 7), 0.5 mg/mL BSA, 0.5 mM Glc-1-P, 0.25 mM ATP subsaturating (near S0.5 value), 5 mM MgCl2, (0.2 U Pyrophosphatase))
(170 μL premix will allow 20 μL for analog vol., 10 μL of E)
II. ANALOG CONC.=5, 50, 500 μM (STOCK CONC.=5 mM) in 50 mM HEPES, pH 7, note that 20 μL of 5 mM in 200 μL assay will yield 500 μM final concentration to obtain 5
• ANALOG I: add 625 μL of HEPES buffer, mix thoroughly • ANALOG II: add 500 μL of HEPES buffer, mix thoroughly 1:10 DILUTION ALIQUOTS OF 5 mM STOCKS are prepared in order to generate stock solutions that will give 50 and 5 μM with the addition of 20 μL. 100 μL aliquots are stored at −20 C RBS ADPG PPASE WT ENZYME CONC.=17 mg/mL (use 1:8000 dilution in Dilution Buffer) The Following Assay Set of 11 are Utilized for Each Analog 1—BLANK (Premix A) 2—BLANK+50 μM ANALOG (A) 3—BLANK+500 μM ANALOG (A) 4—E CON (A) 5—E CON+F6P (B) 6—E+5 μM (A) 7—E+5 μM (B) 8—E+50 μM (A) 9—E+50 μM (B) 10—E+500 μM (A) 11—E+500 μM (B)
Purified Rb.s ADPG Ppase was assayed under standard conditions (0.25 mM ATP [˜S0.5 value], 0.5 mM Glc-1-P, 5 mM Mg, 100 mM HEPES, pH7) in the presence and absence of the activator F6P (1 mM) at 3 concentrations of the analogs: 5, 50, and 500 μM. Analog stock solutions were made in 50 mM HEPES, pH 7). These concentrations should be regarded as estimates as there could have been some breakdown of the compounds during 2 years of storage at −20° C. The analogs had no effect on the background cpm of the assays.

[3] = system: bacteria; conditions: cited from earlier work
[4] = 5 uM analog, premix B (+1 mM F6P)
[5] = 50 uM analog, premix A (no F6P)
[6] = 50 uM analog, premix B (+1 mM F6P)
[7] = 500 uM analog, premix A (no F6P)
[8] = 500 uM analog, premix B (+1 mM F6P)

For `N=C(NCCCCCCNC(=N)NC(=N)Nc1ccc(Cl)cc1)NC(=N)Nc1ccc(Cl)cc1.O=C(O)[C@H](O)[C@@H](O)[C@H](O)[C@H](O)CO.O=C(O)[C@H](O)[C@@H](O)[C@H](O)[C@H](O)CO` [chlorhexidine gluconate], the “return to pre-rinse levels after” value [1] is listed as 7 h.

For `CCCCC(CC)CNC(=N)NC(=N)NCCCCCCNC(=N)NC(=N)NCC(CC)CCCC` (stereo not drawn) [alexidine], the “return to pre-rinse levels after” value [1] is listed as 5 h.

In the case of `BP(=O)(OC[C@H]1O[C@@H](n2cnc3c(N)ncnc32)[C@H](O)[C@@H]1O)OP(=O)(O)O[C@H]1O[C@H](CO)[C@@H](O)[C@H](O)[C@H]1O` (single isomer, unassigned) [Analog II, adenosine-α-P-boranodiphosphoglucose], the “*2.2” value ([2]; 5 uM analog, premix A (no F6P)) is reported as 1.122, the CPM ([2]; 5 uM analog, premix A (no F6P)) is reported as 477.00 CPM and the Units/mg ([2]; 5 uM analog, premix A (no F6P)) is reported as 5.28 Units/mg. For the same compound, the “cor. CPM” value ([2]; 5 uM analog, premix A (no F6P)) was 420.67 CPM, the “dil. Corr” value ([2]; 5 uM analog, premix A (no F6P)) was 89.743 nmol/min/µL and the nmol ([2]; 5 uM analog, premix A (no F6P)) was 0.51 nmol. The nmol/min ([2]; 5 uM analog, premix A (no F6P)) was 0.112 nmol/min, the nmol/min/uL ([2]; 5 uM analog, premix A (no F6P)) was 0.0112 nmol/min/µL and the “*2.2” value [2, 4] was 19.946. For the same compound, the CPM [2, 4] was 7536.00 CPM, the Units/mg [2, 4] was 93.86 Units/mg and the “cor. CPM” value [2, 4] was 7479.67 CPM. For the same compound, the “dil. Corr” value [2, 4] was 1595.663 nmol/min/µL, the nmol [2, 4] was 9.07 nmol and the nmol/min [2, 4] was 1.995 nmol/min. The nmol/min/uL [2, 4] was 0.1995 nmol/min/µL, the “*2.2” value [2, 5] was 0.930 and the CPM [2, 5] was 399.67 CPM. The Units/mg [2, 5] was 4.38 Units/mg, the “cor. CPM” value [2, 5] was 348.67 CPM and the “dil. Corr” value [2, 5] was 74.383 nmol/min/µL. For the same compound, the nmol [2, 5] was 0.42 nmol, the nmol/min [2, 5] was 0.093 nmol/min and the nmol/min/uL [2, 5] was 0.0093 nmol/min/µL. For the same compound, the “*2.2” value [2, 6] was 16.305, the CPM [2, 6] was 6165.33 CPM and the Units/mg [2, 6] was 76.73 Units/mg. The “cor. CPM” value [2, 6] was 6114.33 CPM, the “dil. Corr” value [2, 6] was 1304.390 nmol/min/µL and the nmol [2, 6] was 7.41 nmol. The nmol/min [2, 6] was 1.630 nmol/min, the nmol/min/uL [2, 6] was 0.1630 nmol/min/µL and the “*2.2” value [2, 7] was 0.376. The CPM [2, 7] was 194.33 CPM, the Units/mg [2, 7] was 1.77 Units/mg and the “cor. CPM” value [2, 7] was 141.00 CPM. For the same compound, the “dil. Corr” value [2, 7] was 30.080 nmol/min/µL, the nmol [2, 7] was 0.17 nmol and the nmol/min [2, 7] was 0.038 nmol/min. For the same compound, the nmol/min/uL [2, 7] was 0.0038 nmol/min/µL, the “*2.2” value [2, 8] was 7.122 and the CPM [2, 8] was 2724.00 CPM. For the same compound, the Units/mg [2, 8] was 33.51 Units/mg, the “cor. CPM” value [2, 8] was 2670.67 CPM and the “dil. Corr” value [2, 8] was 569.743 nmol/min/µL. For the same compound, the nmol [2, 8] was 3.24 nmol, the nmol/min [2, 8] was 0.712 nmol/min and the nmol/min/uL [2, 8] was 0.0712 nmol/min/µL. For the same compound, the “inhibition of Rb.s. ADPG Ppase” value ([2]; absence of the activator F6P) was “about 70%” and the “inhibition of Rb.s. ADPG Ppase” value ([2]; presence of F6P) was “about 70%”.

In the case of `CCCCC(CC)CN1CN(CC(CC)CCCC)CC(C)(N)C1` (stereo not drawn) [hexetidine], the “return to pre-rinse levels after” value [1] is listed as 1.5 h.

With `BP(=O)(OC[C@H]1O[C@@H](n2cnc3c(N)ncnc32)[C@H](O)[C@@H]1O)OP(=O)(O)O[C@H]1O[C@H](CO)[C@@H](O)[C@H](O)[C@H]1O` (single isomer, unassigned) [Analog I, adenosine-α-P-boranodiphosphoglucose] the “*2.2” value ([2]; 5 uM analog, premix A (no F6P)) was 0.854, the CPM ([2]; 5 uM analog, premix A (no F6P)) was 380.67 CPM and the Units/mg ([2]; 5 uM analog, premix A (no F6P)) was 4.02 Units/mg. For the same compound, the “cor. CPM” value ([2]; 5 uM analog, premix A (no F6P)) was 320.34 CPM, the “dil. Corr” value ([2]; 5 uM analog, premix A (no F6P)) was 68.339 nmol/min/µL and the nmol ([2]; 5 uM analog, premix A (no F6P)) was 0.39 nmol. For the same compound, the nmol/min ([2]; 5 uM analog, premix A (no F6P)) was 0.085 nmol/min, the nmol/min/uL ([2]; 5 uM analog, premix A (no F6P)) was 0.0085 nmol/min/µL and the “*2.2” value [2, 4] was 19.496. For the same compound, the CPM [2, 4] was 7371.33 CPM, the Units/mg [2, 4] was 91.75 Units/mg and the “cor. CPM” value [2, 4] was 7311.00 CPM. For the same compound, the “dil. Corr” value [2, 4] was 1559.680 nmol/min/µL, the nmol [2, 4] was 8.86 nmol and the nmol/min [2, 4] was 1.950 nmol/min. The nmol/min/uL [2, 4] was 0.1950 nmol/min/µL, the “*2.2” value [2, 5] was 0.755 and the CPM [2, 5] was 359.33 CPM. For the same compound, the Units/mg [2, 5] was 3.55 Units/mg, the “cor. CPM” value [2, 5] was 283.00 CPM and the “dil. Corr” value [2, 5] was 60.373 nmol/min/µL. It also gave a nmol [2, 5] of 0.34 nmol, a nmol/min [2, 5] of 0.075 nmol/min and a nmol/min/uL [2, 5] of 0.0075 nmol/min/µL. For the same compound, the “*2.2” value [2, 6] was 18.572, the CPM [2, 6] was 7041.00 CPM and the Units/mg [2, 6] was 87.40 Units/mg. The “cor. CPM” value [2, 6] was 6964.67 CPM, the “dil. Corr” value [2, 6] was 1485.796 nmol/min/µL and the nmol [2, 6] was 8.44 nmol. For the same compound, the nmol/min [2, 6] was 1.857 nmol/min, the nmol/min/uL [2, 6] was 0.1857 nmol/min/µL and the “*2.2” value [2, 7] was 0.284. The CPM [2, 7] was 160.00 CPM, the Units/mg [2, 7] was 1.33 Units/mg and the “cor. CPM” value [2, 7] was 106.33 CPM. For the same compound, the “dil. Corr” value [2, 7] was 22.684 nmol/min/µL, the nmol [2, 7] was 0.13 nmol and the nmol/min [2, 7] was 0.028 nmol/min. For the same compound, the nmol/min/uL [2, 7] was 0.0028 nmol/min/µL, the “*2.2” value [2, 8] was 11.341 and the CPM [2, 8] was 4306.67 CPM. For the same compound, the Units/mg [2, 8] was 53.37 Units/mg, the “cor. CPM” value [2, 8] was 4253.00 CPM and the “dil. Corr” value [2, 8] was 907.307 nmol/min/µL. The nmol [2, 8] was 5.16 nmol, the nmol/min [2, 8] was 1.134 nmol/min and the nmol/min/uL [2, 8] was 0.1134 nmol/min/µL. The “inhibition of Rb.s. ADPG Ppase” value ([2]; absence of the activator F6P) was “about 75%” and the “inhibition of Rb.s. ADPG Ppase” value ([2]; presence of F6P) was roughly 50%.

In the case of `[F-].[Na+]` [NaF], the “increase in concentration necessary to be bacteriocidal” value ([3]; relative to inhibitory concentration) is listed as 30 fold and the “concentration required for inhibitory effects” value ([3]; vehicles) is listed as greater than 100 μl/ml.
